Legend:
Blattella germanica = assay: Knockdown spray test on Blattella germanica, 0.1% w/v oil formulation (Test Example 2); type: in vivo; conditions: topical, 0.25 h, active ingredient 0.1% w/v, 1.5 ml sprayed, within 15 minutes, read-out: knockdown rate of the test insects within 15 minutes
Procedure: Ten Blattella germanica (5 males and 5 females) were released in a test container (8.75 cm in diameter, 7.5 cm in height, and the bottom made of 16 mesh metallic wire) with the inner wall on which butter was applied, and the container was placed on the bottom of a test chamber (bottom: 46 cm×46 cm, height: 70 cm). From a height of 60 cm above the upper surface of the container, 1.5 ml of the test drug solution was sprayed using a spray gun (a spraying pressure of 0.42 kg/cm^2). Thirty seconds after spraying, the container was taken out from the test chamber, and after 2 minutes, 5 minutes and 15 minutes, the number of knocked-down insects was counted to obtain a knockdown rate. The knockdown rate was calculated by the following equation.
(§1) Knockdown Rate (%)=(Number of Knocked-down Insects/Number of Tested Insects)×100

Culex pipiens pallens = assay: Knockdown spray test on adult Culex pipiens pallens (Test Example 4); type: in vivo; conditions: topical, 0.25 h, active ingredient 0.1% w/v, 0.5 ml sprayed, within 15 minutes, read-out: knockdown rate of the test insects within 15 minutes
Procedure: Ten adult Culex pipiens pallens were released in a polyethylene cup (bottom diameter: 10.6 cm), and the cup was covered with a 16-mesh nylon gauze. The polyethylene cup was placed on the bottom of a test chamber (bottom: 46 cm×46 cm, height: 70 cm). From a height of 30 cm above the upper surface of the polyethylene cup, 0.5 ml of the test drug solution was sprayed using a spray gun (a spraying pressure of 0.4 kg/cm^2). Immediately after spraying, the cup was taken out from the test chamber, and after 2 minutes, 5 minutes and 15 minutes, the number of knocked-down insects was counted to obtain a knockdown rate. The knockdown rate was calculated by the following equation.
as §1

SMILES | pest or weed control at 0.1 % strength (Blattella germanica) [%] | pest or weed control at 0.1 % strength (Culex pipiens pallens) [%]
O=C(NCC1CCOC1)c1cc(COCc2cccc(F)c2)on1 (centres unmarked) [(74)] | ≥ 80 | ≥ 80
O=C(NCC1CCOCC1)c1cc(COCc2cccc(F)c2)on1 [(75), N-(tetrahydropyran-4-ylmethyl)-5-(3-fluorobenzyloxymethyl)isoxazole-3-carboxamide] | ≥ 80 | ≥ 80
O=C(NCC1CCOC1)c1cc(COCc2cccc(SC(F)(F)F)c2)on1 (centres unmarked) [(80), N-(tetrahydrofuran-3-ylmethyl)-5-(3-trifluoromethylthiobenzyloxymethyl)isoxazole-3-carboxamide] | ≥ 80 | ≥ 80
COc1cccc(COCc2cc(C(=O)NCC3CCOCC3)no2)c1 [(85), N-(tetrahydropyran-4-ylmethyl)-5-(3-methoxybenzyloxymethyl) isoxazole-3-carboxamide] | ≥ 80 | ≥ 80
CSc1cccc(COCc2cc(C(=O)NCC3CCOC3)no2)c1 (centres unmarked) [(88), N-(tetrahydrofuran-3-ylmethyl)-5-(3-methylthiobenzyloxymethyl)isoxazole-3-carboxamide] | ≥ 80 | ≥ 80
O=C(NCC1CCOC1)c1cc(COCc2ccc(F)cc2)on1 (centres unmarked) [(89), N-(tetrahydrofuran-3-ylmethyl)-5-(4-fluorobenzyloxymethyl)isoxazole-3-carboxamide] | ≥ 80 | ≥ 80
COc1ccc(COCc2cc(C(=O)NCC3CCOC3)no2)cc1 (centres unmarked) [(99), N-(tetrahydrofuran-3-ylmethyl)-5-(4-methoxybenzyloxymethyl) isoxazole-3-carboxamide] | ≥ 80 | ≥ 80
O=C(NCC1CCOC1)c1cc(COCc2ccc(Cl)s2)on1 (centres unmarked) [(109), N-(tetrahydrofuran-3-ylmethyl)-5-(2-chlorothiophen-5-ylmethoxymethyl)isoxazole-3-carboxamide] | ≥ 80 | ≥ 80
O=C(NCC1CCOCC1)c1cc(COCc2ccc(Cl)s2)on1 [(110), N-(tetrahydropyran-4-ylmethyl)-5-(2-chlorothiophen-5-ylmethoxymethyl)isoxazole-3-carboxamide] | ≥ 80 | ≥ 80
O=C(NCC1CCOC1)c1cc(COCc2cc3ccccc3o2)on1 (centres unmarked) [(111)] | ≥ 80 | ≥ 80
O=C(NCC1CCOC1)c1cc(COCc2ccc(-c3ccccc3)o2)on1 (centres unmarked) [(124), N-(tetrahydrofuran-3-ylmethyl)-5-(5-phenylfurfuryloxymethyl)isoxazole-3-carboxamide] | ≥ 80 | ≥ 80
O=C(NCC1CCOC1)c1cc(COCCCc2ccccc2)on1 (centres unmarked) [(133), N-(tetrahydrofuran-3-ylmethyl)-5-(3-phenylpropoxymethyl)isoxazole-3-carboxamide] | ≥ 80 | ≥ 80
O=C(NCC1CCOCC1)c1cc(COCCCc2ccccc2)on1 [(134), N-(tetrahydropyran-4-ylmethyl)-5-(3-phenylpropoxymethyl)isoxazole-3-carboxamide] | ≥ 80 | ≥ 80
O=Cc1c(C(=O)NCC2CCOC2)noc1COCc1ccccc1 (centres unmarked) [(165), N-(tetrahydrofuran-3-ylmethyl)-(5-benzyloxymethyl-4-formyl) isoxazole-3-carboxamide] | ≥ 80 | 
CC(F)c1c(C(=O)NCC2CCOC2)noc1COCc1ccccc1 (centres unmarked) [(172), N-(tetrahydrofuran-3-ylmethyl)-[5-benzyloxymethyl-4-(1-fluoroethyl)]isoxazole-3-carboxamide] | ≥ 80 | ≥ 80
O=C(NCC1CCOC1)c1noc(COCc2ccccc2)c1CO (centres unmarked) [(174), N-(tetrahydrofuran-3-ylmethyl)-(5-benzyloxymethyl-4-hydroxymethyl)isoxazole-3-carboxamide] | ≥ 80 | ≥ 80
CC(O)c1c(C(=O)NCC2CCOC2)noc1COCc1ccccc1 (centres unmarked) [(175), N-(tetrahydrofuran-3-ylmethyl)-[5-benzyloxymethyl-4-(1-hydroxyethyl)]isoxazole-3-carboxamide] | ≥ 80 | ≥ 80
O=C(NCC1CCOCC1)c1cc(COc2ccccc2Cl)on1 [(177), N-(tetrahydropyran-4-ylmethyl)-5-(2-chlorophenoxymethyl)isoxazole-3-carboxamide] | ≥ 80 | ≥ 80

SMILES | pest or weed control at 0.1 % strength (Blattella germanica) [%] | pest or weed control at 0.1 % strength (Culex pipiens pallens) [%]
O=C(NCC1CCOC1)c1cc(COc2cccc(Cl)c2)on1 (centres unmarked) [(178), N-(tetrahydrofuran-3-ylmethyl)-5-(3-chlorophenoxymethyl)isoxazole-3-carboxamide] | ≥ 80 | ≥ 80
O=C(NCC1CCOC1)c1cc(COc2ccc(Cl)cc2)on1 (centres unmarked) [(180)] | ≥ 80 | ≥ 80
O=C(NCC1CCOC1)c1cc(COc2ccc(F)cc2)on1 (centres unmarked) [(184)] | ≥ 80 | ≥ 80
O=C(NCC1CCOC1)c1cc(COc2ccc(Br)cc2)on1 (centres unmarked) [(186), N-(tetrahydrofuran-3-ylmethyl)-5-(4-bromophenoxymethyl)isoxazole-3-carboxamide] | ≥ 80 | ≥ 80
CC(O)c1c(C(=O)NCC2CCOC2)noc1COCc1ccc2ccccc2c1 (centres unmarked) [(210), N-(tetrahydrofuran-3-ylmethyl)-1-hydroxyethyl-5-(2-naphthylmethoxymethyl)isoxazole-3-carboxamide] | ≥ 80 | ≥ 80
O=C(NCC1CCOC1)c1noc(COCc2ccc3ccccc3c2)c1CF (centres unmarked) [(211), N-(tetrahydrofuran-3-ylmethyl)-4-fluoromethyl-5-(2-naphthylmethoxymethyl)isoxazole-3-carboxamide] | ≥ 80 | ≥ 80
O=C(NCC1CCOC1)c1noc(COCc2ccc3ccccc3c2)c1Br (centres unmarked) [(256), N-(tetrahydrofuran-3-ylmethyl)-5-(2-naphthylmethoxymethyl)-4-bromoisoxazole-3-carboxamide] |  | ≥ 80
O=C(NCC1CCOC1)c1cc(COCc2cc(F)ccc2F)on1 (centres unmarked) [(259), N-(tetrahydrofuran-3-ylmethyl)-5-(2,5-difluorobenzyloxymethyl)isoxazole-3-carboxamide] |  | ≥ 80
O=C(NCC1CCOC1)c1cc(COCc2cc(Br)cc(Br)c2)on1 (centres unmarked) [(262), N-(tetrahydrofuran-3-ylmethyl)-5-(3,5-dibromobenzyloxymethyl)isoxazole-3-carboxamide] |  | ≥ 80
O=C(NCC1CCOC1)c1cc(COCc2c(F)c(F)cc(F)c2F)on1 (centres unmarked) [(269), N-(tetrahydrofuran-3-ylmethyl)-5-(2,3,5,6-tetrafluorobenzyloxymethyl)isoxazole-3-carboxamide] |  | ≥ 80
Cc1c(F)c(F)c(COCc2cc(C(=O)NCC3CCOC3)no2)c(F)c1F (centres unmarked) [(273), N-(tetrahydrofuran-3-ylmethyl)-5-(4-methyl-2,3,5,6-tetrafluorobenzyloxymethyl)isoxazole-3-carboxamide] |  | ≥ 80
O=C(NCC1CCOC1)c1noc(COCc2ccc3ccccc3c2)c1I (centres unmarked) [(295), N-(tetrahydrofuran-3-ylmethyl)-5-(2-naphthylmethoxymethyl)-4-iodoisoxazole-3-carboxamide] |  | ≥ 80
O=C(NCC1CCOC1)c1noc(COCc2ccccc2F)c1Br (centres unmarked) [(296), N-(tetrahydrofuran-3-ylmethyl)-5-(2-fluorobenzyloxymethyl)-4-bromoisoxazole-3-carboxamide] |  | ≥ 80
O=C(NCC1CCOC1)c1noc(COCc2ccccc2F)c1I (centres unmarked) [(297), N-(tetrahydrofuran-3-ylmethyl)-5-(2-fluorobenzyloxymethyl)-4-iodoisoxazole-3-carboxamide] |  | ≥ 80
O=C(NCC1CCOC1)c1cc(Cc2cc(Cl)cc(Cl)c2)on1 (centres unmarked) [(307), N-(tetrahydrofuran-3-ylmethyl)-5-(3,5-dichlorobenzyl)isoxazole-3-carboxamide] |  | ≥ 80
O=C(NCC1CCOC1)c1cc(Cc2ccc(C(F)(F)F)cc2)on1 (centres unmarked) [(316), N-(tetrahydrofuran-3-ylmethyl)-5-(4-trifluoromethylbenzyl)isoxazole-3-carboxamide] |  | ≥ 80
O=C(NCC1CCOC1)c1cc(Cc2ccccc2F)on1 (centres unmarked) [(320), N-(tetrahydrofuran-3-ylmethyl)-5-(2-fluorobenzyl)isoxazole-3-carboxamide] |  | ≥ 80
O=C(NCC1CCOC1)c1cc(Cc2ccccc2Cl)on1 (centres unmarked) [(323), N-(tetrahydrofuran-3-ylmethyl)-5-(2-chlorobenzyl)isoxazole-3-carboxamide] |  | ≥ 80

From patent US20150344466A1 (SUMITOMO CHEMICAL COMPANY, LIMITED, priority 2013, published 2015)
